From patent publication US20050164951A1, “Inhibitors for the soluble epoxide hydrolase” (The Regents of the University of California, priority 2003, published 2005)
Read-outs that look alike come from different tables or passages of the source.

Experiments:
mouse sEH = target: T1, mouse sEH (Mus musculus, UniProt P34914); assay: Inhibition of recombinant mouse sEH, IC50 assay with 4-nitrophenyl-trans-2,3-epoxy-3-phenylpropyl carbonate as substrate; type: biochemical
T1 construct: made in house; host or cells: baculovirus expression system
T1 sequence (P34914 1-554): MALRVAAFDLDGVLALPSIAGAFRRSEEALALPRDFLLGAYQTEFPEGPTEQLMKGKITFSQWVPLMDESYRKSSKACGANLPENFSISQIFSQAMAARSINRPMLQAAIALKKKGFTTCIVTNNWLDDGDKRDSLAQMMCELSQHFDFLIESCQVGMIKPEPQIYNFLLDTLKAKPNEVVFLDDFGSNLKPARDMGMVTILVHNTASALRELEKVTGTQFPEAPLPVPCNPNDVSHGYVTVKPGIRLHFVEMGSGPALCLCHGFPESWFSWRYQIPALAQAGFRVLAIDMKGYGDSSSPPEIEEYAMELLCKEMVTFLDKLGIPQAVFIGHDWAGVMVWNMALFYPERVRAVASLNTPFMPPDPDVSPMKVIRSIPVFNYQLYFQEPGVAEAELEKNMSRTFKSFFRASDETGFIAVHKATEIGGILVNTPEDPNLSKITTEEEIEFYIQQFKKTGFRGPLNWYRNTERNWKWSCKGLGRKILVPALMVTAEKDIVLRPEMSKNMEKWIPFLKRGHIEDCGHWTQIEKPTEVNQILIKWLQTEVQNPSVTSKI
Protocol: (§1) Assays were performed in triplicate. […] The curve was generated from at least three separate runs, each in triplicate, to obtain the standard deviation (SD) given in Table 1 thru Table 4.

human sEH = target: T2, human sEH (Homo sapiens, UniProt P34913); assay: Inhibition of recombinant human sEH, IC50 assay with 4-nitrophenyl-trans-2,3-epoxy-3-phenylpropyl carbonate as substrate; type: biochemical
T2 construct: made in house; host or cells: baculovirus expression system
T2 sequence (P34913 1-555): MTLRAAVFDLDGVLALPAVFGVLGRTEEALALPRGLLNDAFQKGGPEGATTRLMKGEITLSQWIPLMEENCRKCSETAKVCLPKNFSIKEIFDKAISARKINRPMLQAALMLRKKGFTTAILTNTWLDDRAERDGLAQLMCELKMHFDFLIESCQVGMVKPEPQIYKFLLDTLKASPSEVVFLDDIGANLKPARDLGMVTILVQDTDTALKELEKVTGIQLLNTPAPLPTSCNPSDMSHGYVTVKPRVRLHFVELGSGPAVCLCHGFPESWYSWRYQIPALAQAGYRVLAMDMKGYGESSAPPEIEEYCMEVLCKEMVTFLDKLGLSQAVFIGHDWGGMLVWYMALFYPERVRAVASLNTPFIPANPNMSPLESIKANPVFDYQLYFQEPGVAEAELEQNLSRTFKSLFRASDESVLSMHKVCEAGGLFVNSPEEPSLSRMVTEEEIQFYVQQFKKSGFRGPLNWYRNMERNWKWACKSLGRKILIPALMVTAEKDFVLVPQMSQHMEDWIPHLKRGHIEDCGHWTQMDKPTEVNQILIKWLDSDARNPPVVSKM
Protocol: as §1

Water solubility = type: physicochemical; conditions: 772 vs. 789, 791 vs. 790, 297 vs. 686
[1] = Tables 17a and b, read-out: IC50 (μM) Mouse sEH
[2] = Tables 17a and b, read-out: IC50 (μM) Human sEH
[3] = Table 1, […] enzyme, 5 min preincubation, pH 7.4, 30° C., [S] = 40 μM, means ± SD of three experiments, read-out: IC50 (μM) Human sEH
[4] = Table 7, established protocols, read-out: IC50 (μM) Mouse sEH
[5] = Table 7, established protocols, read-out: IC50 (μM) Human sEH

Work on `O=C(NCCCCCCCCCCCn1ccnc1)NC12CC3CC(CC(C3)C1)C2` [Compound 997] yielded an IC50 (mouse sEH; [1]) of 2.3 ± 0.01 µM and an IC50 (human sEH; [2]) of 63 ± 0.01 µM.

In the case of `O=C(O)CCCCCNC(=O)NC1CCCCC1` [Compound 56], the IC50 (mouse sEH; Table 1, 0.12 μM enzyme, 5 min preincubation, pH 7.4, 30° C., [S] = 40 μM, means ± SD of three experiments, read-out: IC50 (μM) Mouse sEH) is reported as 90 ± 3 µM and the IC50 (human sEH; [3]) is reported as 253 ± 8 µM.

With `CCCCCOC(=O)CCCCC(=O)Nc1cccc(Cl)c1` [Compound 987] the IC50 (mouse sEH; [1]) was 1.7 ± 0.01 µM and the IC50 (human sEH; [2]) was 5.9 ± 0.01 µM.

For `O=C(CCCCCCCCCCCNC(=O)NC12CC3CC(CC(C3)C1)C2)NS(=O)(=O)c1ccccc1` [Compound 914], the IC50 (mouse sEH) was 0.05 ± 0.01 µM and the IC50 (human sEH; [2]) was 0.1 ± 0.01 µM.

`CCOC(=O)CCCCCCOC(=O)CCCNC(=O)NC12CC3CC(CC(C3)C1)C2` [Compound 878] gave an IC90 (mouse sEH; Table 5, 0.12 μM enzyme, 5 min preincubation, pH 7.4, 30° C., means ± SD) of 130 ± 10 nM, an IC50 (mouse sEH; Table 5, […] enzyme, 5 min preincubation, pH 7.4, 30° C., means ± SD, read-out: Mouse sEH IC50) of 0.05 ± 0.01 µM and an IC90 (human sEH; Table 5, 0.24 μM enzyme, 5 min preincubation, pH 7.4, 30° C., means ± SD) of 810 ± 10 nM. It also gave an IC50 (human sEH; Table 5, […] enzyme, 5 min preincubation, pH 7.4, 30° C., means ± SD, read-out: Human sEH IC50) of 0.12 ± 0.01 µM.

`O=C(CC1CCCCC1)Nc1ccccc1` [Compound 964] gave an IC50 (mouse sEH; [1]) of 3.7 ± 0.01 µM and an IC50 (human sEH; [2]) of 16 ± 0.01 µM.

`C#COCCOCCCCCNC(=O)NC12CC3CC(CC(C3)C1)C2` [Compound 913] showed an IC50 (mouse sEH; [4]) of 0.05 ± 0.01 µM and an IC50 (human sEH; [5]) of 0.1 ± 0.01 µM.

Compound `COC(=O)CCNC(=O)NC1CCCCC1` [Compound 635] has an IC50 (mouse sEH; Table 1, […] enzyme, 5 min preincubation, pH 7.4, 30° C., [S] = 40 μM, means ± SD of three experiments, read-out: IC50 (μM) Mouse sEH) of 2.5 ± 0.1 µM and an IC50 (human sEH; [3]) of 78 ± 4 µM.

`O=C(NCCCCCOCCOCCOCc1ccccc1)NC12CC3CC(CC(C3)C1)C2` [Compound 951] showed an IC50 (mouse sEH; [4]) of 0.05 ± 0.01 µM and an IC50 (human sEH; [5]) of 0.1 ± 0.01 µM.

For `CCCCCOC(=O)CCCNC(=O)Cc1cccc(Cl)c1` [Compound 988], the IC50 (mouse sEH; [1]) was 2.9 ± 0.01 µM and the IC50 (human sEH; [2]) was 5 ± 0.01 µM.

`CCOC(=O)CCCCCCCCCCCNC(=O)NC12CC3CC(CC(C3)C1)C2` [Compound 784, 1-(1-Adamantyl)-3-(11-ethoxycarbonylundecyl)urea] showed an IC50 (mouse sEH; Table 4, […] enzyme, 5 min preincubation, pH 7.4, 30° C., means ± SD, read-out: IC50 (μM) Mouse sEH) of 0.05 ± 0.01 µM and an IC50 (human sEH; Table 4, […] enzyme, 5 min preincubation, pH 7.4, 30° C., means ± SD, read-out: IC50 (μM) Human sEH) of 0.1 ± 0.01 µM.

For `CCCCCCCCCCNC(=O)NC12CC3CC(CC(C3)C1)C2` [Compound 790, reference compound], the IC50 (mouse sEH; Table 2, […] enzyme, 5 min preincubation, pH 7.4, 30° C., means ± SD, read-out: IC50 (μM) Mouse sEH) was 0.05 ± 0.01 µM, the IC50 (human sEH; Table 2, […] enzyme, 5 min preincubation, pH 7.4, 30° C., means ± SD, read-out: IC50 (μM) Human sEH) was 0.1 ± 0.01 µM and the “solubility relative to the corresponding cyclohexyl derivative” value (Water solubility) was “approximately 2 x”.
